A short description of data set [1]: Systemic clearance after intravenous administration. The note with it: plasma, cynomolgus monkey, 0.001 mg/mL/kg. The class given is in vivo. The procedure: Equimolar sodium hydroxide and injectable distilled water were added to each of the test compounds to prepare a 1 mg/mL aqueous solution. The aqueous solution was diluted with physiological saline until the concentration reached 0.001 mg/mL and was rapidly administered at a dose of 0.001 mg/mL/kg to cynomolgus monkey through the cephalic vein. Via heparinized syringes, 2 min, 5 min, 15 min, 30 min, 1 hr, 2 hr, 4 hr, 6 hr, 8 hr and 24 hr after administration, blood was drawn from the cephalic vein (non-administered sites). After centrifugation, blood plasma was sampled and stored at −80° C. before pretreatment. The blood plasma was pretreated by mixing with acetonitrile and centrifuging to remove proteins followed by measurement by LC/MS/MS. Changes of concentration in blood plasma was analyzed using WinNonlin4.0.1 to evaluate the systemic clearance of the test compound.

The test system of the next data set is male rats. The experiment in a line: Digestive symptoms after repeated oral administration. The following applies: 0.1 mg/kg oral, repeated for 4 days. In kind it is in vivo, rat. The procedure:
Using male rats, aged 6 weeks, general states of the rats were observed after repeating oral administration of the test compound at a dose of 0.1 mg/kg for 4 days. To a control, injectable water which is a medium was administered.

A short description of data set [2]: Parallel artificial membrane permeability assay (PAMPA). In kind it is in vitro ADME. The following applies: sum of pH 5.0, 6.2 and 7.4, 25° C., read-out: membrane permeability coefficients (PAMPA(SUM)). Here is the method: The permeability of the drugs through artificial membranes was measured by parallel artificial membrane permeability assay (PAMPA) under the following conditions. For the measurements, a PAMPA system (pION) was used. The membrane permeability was evaluated by measuring membrane permeability coefficients at three pH values and summing the values (PAMPA(SUM)(cm/sec)).
Lipid membrane: GIT-0 (pION)
Incubation temperature: 25° C.
Donor: 5% DMSO-containing buffer
Compound concentration: 50 μmol/L
(In general: In PAMPA a lipid-coated filter parts donor from acceptor wells.)

Another data set has as its system cynomolgus monkeys. The experiment in a line: Effects on cardiac function in anesthetized cynomolgus monkeys. In kind it is in vivo, cynomolgus monkey. The note with it: continuous intravenous 30 min. Here is the method: Cynomolgus monkeys were anesthetized with pentobarbital (at an initial dose of 20-30 mg/kg by intravenous administration; at a dose of 4-5 mg/kg/hr by intravenous continuous administration). A tracheal tube was inserted and experiments were carried out under artificial respiration (fresh air+pure oxygen, ventilatory volume: 10-15 mL/kg, ventilation frequency: 10-15 times/min). In the right lying position, the left thorax was opened between the fourth and fifth intercostal spaces. The […] (the origin of the left anterior descending artery or circumflex branch) and the origin of the ascending main artery were peeled off and transducers for blood flow measurement were located there. The blood flow rates were measured using an electronic blood flowmeter or an ultrasonic blood flowmeter. The blood pressures were measured using a pressure transducer in a state where a catheter was inserted into the right femoral artery. The left ventricular internal pressure was measured in a state where a catheter was inserted from the left carotid artery into the left ventricle. The electrocardiogram was measured using needle electrodes installed in the right armpit and the left thorax. After catheters for administration were inserted into the right and left cephalic veins and femoral veins, the test compound, pentobarbital (under anesthesia) or an aqueous solution (SOLITA T3 containing 1.2% NaHCO3) were administered therethrough. The test compound was continuously administered intravenously 30 min using a continuous infusion system. The blood pressure, left ventricular internal pressure, blood flow rate through the coronary artery and electrocardiogram data were simultaneously inputted to a PowerLab system (LabChart6, AD instruments) to measure/calculate average blood pressure, heart rate, average blood flow rate through the coronary artery, beat volume, stroke volume (beat volume/heart rate), maximum first deviation of the left ventricular internal pressure, total peripheral blood vessel resistance (average blood pressure/beat volume), cardiac performance (average blood pressure x beat volume) and double product (systolic arterial pressure x heart rate), which is indicative of myocardial oxygen consumption.
The averages of all evaluation parameters for 1 min were obtained before administration, immediately after administration, and 10 min, 20 min and 30 min after administration, and changes of the averages relative to the value measured before administration which is defined as 100% were calculated.

In data set [3] the test system is spontaneously hypertensive rats. The experiment in a line: Blood pressure and heart rate measurement in hypertensive rats. The class given is in vivo, rat. The following applies: continuous intravenous administration for 30 min. The procedure: The blood pressures and heart rates of male spontaneously hypertensive rats were measured. On the day of measurement, indwelling of catheters for blood pressure•heart rate measurement and subject substance administration was carried out under anesthesia with ether. The back of the neck of each rat was incised, a feeding catheter (Atom Medical Corporation) filled with heparinized physiological saline was introduced from the back of the neck; the catheter was inserted into the common carotid artery and internal jugular vein; and the surgical incision was closed. The measurements were conducted in a Bollmann cage under the conscious state and evaluations were carried out after confirming that the individual parameters were stabilized. After confirming the stabilization of blood pressure and heart rate, the test compound was continuously administered intravenously at a flow rate of 5 mL/kg/h for 30 min.
The catheter drawn from the back of the neck was connected to a pressure transducer (DX-200, NIHON KOHDEN CORP.), and the blood pressures and heart rates were measured using a blood pressure amplifier (Gould instrument). The blood pressures and heart rates were recorded on recording paper using a recorder (LINEARCORDER WR3320, GRAPHTEC). The blood pressures and heart rates were converted into values on the recording paper before administration and 2.5, 5, 10, 15, 30, 45 and 60 min after administration. For each individual, rates of increase and decrease in the parameters were evaluated relative to the value before administration (value at 0 min).

The term clearance denotes the volume of plasma or blood freed of the substance per unit of time. A lower clearance goes with inefficient removal. The compound `C[C@@](O)(C/C=C/[C@H]1CCC(=O)[C@@H]1CCSc1nc(C(=O)O)cs1)CCC(F)=C(F)F` [Compound 17, 2-[(2-{(1R,5R)-2-oxo-5-[(1E,4S)-7,8,8-trifluoro-4-hydroxy-4-methyl-1,7-octadien-1-yl]cyclopentyl}ethyl)thio]-1,3-thiazole-4-carboxylic acid] yielded a clearance in data set [1] of 3.6 mL/min/kg. In addition, the “digestive symptoms such as soft feces” value with male rats is recorded as “No digestive symptoms”. For the same compound, the Papp at 4 hr, 50 μmol/L in data set [2] was determined as 59.3 ×10⁻⁶ cm/s. For the same compound, the cardiac performance result with cynomolgus monkeys (30 ng/kg/min) and in the data set on cynomolgus monkeys (100 ng/kg/min) was “did not affect” throughout. Besides, the double product entry with cynomolgus monkeys (30 ng/kg/min) and with cynomolgus monkeys (100 ng/kg/min) was “did not affect” each time. Besides, the “other cardiac function parameters, including the blood flow rate through the coronary artery” value in the data set with cynomolgus monkeys was “did not affect”. Moreover, the “effect on the blood pressure” value in data set [3] was “no effect”.

For the origin of these results see patent publication US9150528B2, “Compound having detrusor muscle-contracting activity and urethral sphincter muscle-relaxing activity” (ONO PHARMACEUTICAL CO., LTD., priority 2009, dated 2015).
